These are literature values, as cited in patent US8951557B2, “Sustained release solid formulations and methods of manufacturing the same” (Hana Pharm. Co. Ltd., priority 2008, dated 2015).

The conditions of series [1]: 5 mg rapid release tablet administered.
The conditions of series [2]: administered orally, compared to direct administration into bloodstream.

For the molecule `COc1ccc2c3c1O[C@H]1C(=O)CC[C@@]4(O)[C@@H](C2)N(C)CC[C@]314.Cl` [Oxycodone hydrochloride], the “time the analgesic effect sustains” value in series [1] was 4 to 6 h. In series [2], the bioavailability is 60-87%.
